Data: ChEMBL document CHEMBL1201862, “PubChem BioAssay data set” (2004)
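Cells were grown in 96-well plates and exposed to each compound for 48 hours at five concentrations; endpoints were interpolated linearly between bracketing concentrations, or set to the highest concentration if not reached. Abbreviation: GI50, concentration required for 50% inhibition of growth.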 The source made the active and inactive calls. Cut-off read from the data, not from the text of the source: active = GI50 up to about 1.1 µM and inactive = higher.

Tests used:
Experiment in all cases: DTP human tumour cell line panel, 48 h
CAKI-1 = tested on: CAKI-1
CCRF-CEM = tested on: CCRF-CEM
COLO 205 = tested on: COLO 205
HCT-116 = tested on: HCT-116
HOP-62 = tested on: HOP-62
HOP-92 = tested on: HOP-92
Hs-578T = tested on: Hs-578T
KM12 = tested on: KM12
LOX IMVI = tested on: LOX IMVI
MDA-MB-435 = tested on: MDA-MB-435
NCI-H23 = tested on: NCI-H23
NCI/ADR-RES = tested on: NCI/ADR-RES
OVCAR-3 = tested on: OVCAR-3
RXF 393 = tested on: RXF 393
SF-295 = tested on: SF-295
SK-MEL-5 = tested on: SK-MEL-5
SN12C = tested on: SN12C
SNB-19 = tested on: SNB-19
UACC-257 = tested on: UACC-257
NCI-H522 = tested on: NCI-H522

Measured: GI50

O=C(CSc1n[nH]c(=O)[nH]c1=O)NNC(=O)c1cccc2nc3ccccc3nc12
inactive: CAKI-1 > 100 µM | CCRF-CEM > 100 µM | COLO 205 31.8 µM | HCT-116 > 100 µM | HOP-62 > 100 µM | HOP-92 > 100 µM | Hs-578T 40.4 µM | KM12 79.3 µM | LOX IMVI 46.1 µM | MDA-MB-435 35.4 µM | NCI-H23 35.9 µM | NCI/ADR-RES > 100 µM | OVCAR-3 > 100 µM | RXF 393 > 100 µM | SF-295 59.3 µM | SK-MEL-5 22 µM | SN12C 94.8 µM | SNB-19 64.1 µM | UACC-257 58.7 µM

CC(C)n1c(=O)c2nn3c(=O)n(C(C)C)c(=O)c3nn2c1=O
inactive: CAKI-1 > 100 µM | CCRF-CEM > 100 µM | COLO 205 > 100 µM | HCT-116 > 100 µM | HOP-62 > 100 µM | HOP-92 > 100 µM | Hs-578T > 100 µM | KM12 > 100 µM | LOX IMVI > 100 µM | MDA-MB-435 > 100 µM | NCI-H23 > 100 µM | NCI/ADR-RES > 100 µM | OVCAR-3 > 100 µM | RXF 393 > 100 µM | SF-295 > 100 µM | SK-MEL-5 > 100 µM | SN12C > 100 µM | SNB-19 > 100 µM | UACC-257 > 100 µM

CC1COC(c2cn[nH]c2C(N)=O)C1O (stereo not drawn)
inactive: CAKI-1 > 100 µM | CCRF-CEM > 100 µM | COLO 205 > 100 µM | HCT-116 > 100 µM | HOP-62 > 100 µM | Hs-578T > 100 µM | KM12 > 100 µM | LOX IMVI > 100 µM | MDA-MB-435 > 100 µM | NCI-H23 > 100 µM | NCI-H522 > 100 µM | NCI/ADR-RES > 100 µM | OVCAR-3 > 100 µM | SF-295 > 100 µM | SK-MEL-5 > 100 µM | SN12C > 100 µM | SNB-19 > 100 µM | UACC-257 > 100 µM

Cc1cc(=O)oc2c3c(ccc12)OC(c1ccc(Br)cc1)CC3=O (stereo not drawn)
inactive: CAKI-1 12.4 µM | CCRF-CEM 2.21 µM | COLO 205 12.7 µM | HCT-116 10.3 µM | HOP-62 7.69 µM | Hs-578T 2.56 µM | KM12 13.9 µM | LOX IMVI 2.98 µM | MDA-MB-435 4.69 µM | NCI-H23 12.1 µM | NCI-H522 4.42 µM | NCI/ADR-RES 12.5 µM | OVCAR-3 10.8 µM | SF-295 10.7 µM | SK-MEL-5 11.6 µM | SN12C 5.42 µM | SNB-19 5.31 µM | UACC-257 13.1 µM

O=C1C=C2CC[C@H]3[C@@H]4CC[C@H](Oc5c6ccccc6nc6ccccc56)[C@H]4CC[C@@H]3[C@H]2CC1
inactive: CAKI-1 36.7 µM | CCRF-CEM 18.5 µM | COLO 205 42.5 µM | HCT-116 37.1 µM | HOP-62 57.1 µM | HOP-92 13.3 µM | Hs-578T 26.8 µM | KM12 39.6 µM | LOX IMVI 27.8 µM | MDA-MB-435 32.7 µM | NCI-H23 27.6 µM | NCI/ADR-RES 20.4 µM | OVCAR-3 42.6 µM | RXF 393 26.2 µM | SF-295 52.4 µM | SK-MEL-5 22.5 µM | SN12C 55.3 µM | SNB-19 > 100 µM | UACC-257 35.6 µM
